According to US20030211152A1, “Controlled release formulation for treating COPD” (SmithKline Beecham Corporation, priority 1999, published 2003):
Read-outs that look alike come from different tables or passages of the source.

Legend:
PDE 4 = assay: IC50 ratio: competing with [3H]R-rolipram binding to high affinity form over inhibiting catalytic activity of low affinity form; type: biochemical; conditions: 1 nM [3H]R-rolipram binding; 1 uM [3H]-cAMP as substrate
Description: This invention covers controlled release formulations which contain a PDE 4 inhibitor, particularly an inhibitor that is specific for PDE 4. A preferred group of inhibitors are those that have an IC50 ratio (high/low binding) of about 0.1 or greater as further described in co-pending U.S. application Ser. No. 08/456,274 and its published counter-part PCT application serial number published Jan. 5, 1995 as WO95/00139; this application is incorporated herein in full by reference as if fully set forth herein. A preferred standard for PDE 4-specific inhibitors which can be used in this invention is one where the compound has an IC50 ratio of about 0.1 or greater; said ratio being the ratio of the IC50 value for competing with the binding of 1 nM of [^3H]R-rolipram to a form of PDE 4 which binds rolipram with a high affinity over the IC50 value for inhibiting the PDE 4 catalytic activity of a form which binds rolipram with a low affinity using 1 uM[^3H]-cAMP as the substrate.

[1] = Side effects with increasing oral dose and blood levels; type: in vivo; conditions: as blood levels increase with increased levels of dosing
Description: While to date no one has been able to identify a compound which is completely without unwanted CNS side effects at all possible dosage levels, at least one compound has been identified that meets the criteria described above, namely cis-4-cyano-4-[3-(cyclopentyloxy)-4-methoxyphenyl]cyclohexane-1-carboxylic acid. […] This is particularly true with COPD. […] The controlled release formulations of this invention allow for administering in a single dosage form several times the quantity that can otherwise be administered of a PDE4 inhibitor and achieve both initial therapeutically effective blood levels and maintain these blood level for an extended period of time. PDE4 inhibitors, particularly PDE4-specific inhibitors are useful in treating other diseases especially in the areas of inflammation, (e.g., asthma, chronic obstructive pulmonary disease, inflammatory bowel disease, rheumatoid arthritis), affects related to tumor necrosis factor and to cognition impairment (e.g., multi-infarct dementia, cognitive dysfunction, or stroke). This invention is useful in treating these diseases as well. These formulations and the method descibed herein can be used for prophylactic treatment as well. Additional other therapeutic or prophylactic agents can be combined with a PDE4 inhibitor in these formulations as well.

[2] = clinical studies / indications; cited from earlier work

SMILES	therapeutic ratio (IC50 ratio high/low binding) (PDE 4)	side effects [1]	side effects [2]
COc1ccc([C@]2(C#N)CC[C@@H](C(=O)O)CC2)cc1OC1CCCC1 [cis-4-cyano-4-[3-(cyclopentyloxy)-4-methoxyphenyl]cyclohexane-1-carboxylic acid]	greater than 0.1	undesirable side effects such as those attributed to CNS activity begin to be manifested	
CCCCn1c(=O)c2c(ncn2CC(C)=O)n(CCCC)c1=O [denbufylline]			pyrosis, nausea and emesis
COc1ccc(C2CNC(=O)C2)cc1OC1CCCC1 (stereo not shown) [rolipram]			psychotropic activity and produces gastrointestinal effects, e.g., pyrosis, nausea and emesis
